Data on eleven molecules can be found in patent publication US6887896B1, “7-[(7-Alkoxy)-chrom-3-en-6-yl]-heptatrienoic acid and 7-[(3-alkoxy)-5,6-dihydronaphthalen-2-yl]-heptatrienoic acid derivatives having serum glucose reducing activity” (Allergan, Inc., priority 2003, dated 2005).

In one assay the target is T1, RXRγ (UniProt P28705).
T1 sequence (P28705 1-463): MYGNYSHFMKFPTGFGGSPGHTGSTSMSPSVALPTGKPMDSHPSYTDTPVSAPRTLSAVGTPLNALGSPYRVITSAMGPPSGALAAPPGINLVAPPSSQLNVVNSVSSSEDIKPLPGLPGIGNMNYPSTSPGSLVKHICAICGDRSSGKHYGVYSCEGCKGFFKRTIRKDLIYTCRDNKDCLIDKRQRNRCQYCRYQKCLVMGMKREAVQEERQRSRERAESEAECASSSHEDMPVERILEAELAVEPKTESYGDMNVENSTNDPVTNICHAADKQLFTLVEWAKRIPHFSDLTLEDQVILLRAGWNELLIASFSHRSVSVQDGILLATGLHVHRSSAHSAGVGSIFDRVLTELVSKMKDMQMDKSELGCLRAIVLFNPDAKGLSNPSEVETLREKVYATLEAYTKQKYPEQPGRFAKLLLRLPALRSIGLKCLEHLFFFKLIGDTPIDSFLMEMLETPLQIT
Description: holoreceptor transactivation assay, RXRγ. In kind it is cell-based. The following applies: for EC50: holoreceptor transactivation, read-out: RXR Trans. EC50 γ; for RXR Trans. efficacy (number in parentheses) γ: percentage compared to the standard compound. From the text: (§1) Specifically, one such assay is a chimeric receptor transactivation assay which tests for agonist-like activity in the R RAPE and RAR7 receptor subtypes, and which is based on work published by Feigner, P. L. and Holm, M (1989) Focus, 112 is described in detail in U.S. Pat. No. 5,455,265. The specification of U.S. Pat. No. 5,455,265 is hereby expressly incorporated by reference. A holoreceptor transactivation assay and a ligand binding assay which measure the antagonist/agonist like activity of the compounds of the invention, or their ability to bind to the several retinoid receptor subtypes, respectively, are described in published PCT Application No. WO WO93/11755 (particularly on pages 30-33 and 37-41) published on Jun. 24, 1993, the specification of which is also incorporated herein by reference. A detailed experimental procedure for holoreceptor transactivations has been described by Heyman et al. Cell 68, 397-406, (1992); Allegretto et al. J. Biol. Chem. 268, 26625-26633, and Mangelsdorf et al. The Retinoids: Biology, Chemistry and Medicine, pp 319-349, Raven Press Ltd., New York, which are expressly incorporated herein by reference. The results obtained in this assay are expressed in EC50 numbers, as they are also in the chimeric receptor transactivation assay. The results of the ligand binding assay are expressed in Ki numbers. (See Cheng et al. Biochemical Pharmacology Vol. 22 pp 3099-3108, expressly incorporated herein by reference.)
(§2) Efficacy in a transactivation assay is expressed as a percentage of the maximum potency attained by the compound compared to a standard which, in this case, is the compound named (2E,4E,1′S,2′S)-3-methyl-5-[2′-methyl-2′-(5,5,8,8-tetramethyl-5,6,7,8-tetrahydro-naphthalen-2-yl)-cyclopropyl]-penta-2,4-dienoic acid. This standard compound is described in U.S. Pat. No. 6,114,533.
(§3) The specification of this application for patent is organized in several sections in accordance with structural Formulas A through F each of which discloses a group of preferred compounds within the scope of the invention. Tables that disclose the activity of certain exemplary compounds of the invention in the above-described RXR receptor transactivation and binding assays are found in the corresponding sections. […] The transactivation data pertaining to the activation of RXR receptors were obtained in the holoreceptor assay.
(§4) Generally speaking, in the tables disclosing the results of transactivation and binding assays the numbers in parentheses indicate efficacy as a percentage compared to the standard compound, (2E,4E,1′S,2′S)-3-methyl-5-[2′-methyl-2′-(5,5,8,8-tetramethyl-5,6,7,8-tetrahydro-naphthalen-2-yl)cyclopropyl]-penta-2,4-dienoic acid and the other numbers indicate the measured EC50 and K; in nanomolar concentration.

Assay [1] deals with T2, RXRα (Homo sapiens, UniProt P19793).
T2 construct: expressed in transfected cells
T2 sequence (P19793 1-462): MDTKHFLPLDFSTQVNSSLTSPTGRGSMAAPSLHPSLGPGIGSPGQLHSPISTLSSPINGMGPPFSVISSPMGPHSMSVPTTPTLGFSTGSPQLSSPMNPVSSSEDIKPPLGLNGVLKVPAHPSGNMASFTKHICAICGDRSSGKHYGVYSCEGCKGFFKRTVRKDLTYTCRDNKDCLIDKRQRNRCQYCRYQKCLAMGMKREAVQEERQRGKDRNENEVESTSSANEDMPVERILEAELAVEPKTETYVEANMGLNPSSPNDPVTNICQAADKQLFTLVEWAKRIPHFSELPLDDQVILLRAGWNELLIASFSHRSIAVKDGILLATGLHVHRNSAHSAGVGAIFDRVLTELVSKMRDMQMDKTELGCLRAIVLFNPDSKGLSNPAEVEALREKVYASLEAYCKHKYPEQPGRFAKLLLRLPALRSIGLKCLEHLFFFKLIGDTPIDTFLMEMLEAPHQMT
Description: ligand binding assay, RXRα. The following applies: for Ki: read-out: RXR Bind Ki α; for Kd: Table 9 (Formula F), read-out: RXR α Kd.
Source text: as §1, §4

For assay [2], the target named is T2, RXRα. Description: holoreceptor transactivation assay, RXRα. Format: cell-based. The settings on record: for EC50: holoreceptor transactivation, read-out: RXR Trans. EC50 α; for Emax: percentage compared to the standard compound, read-out: RXR Trans. efficacy (number in parentheses) α.
Source text: as §1, §2, §3, §4

In another assay the target is T3, RARα (Homo sapiens, UniProt P10276).
T3 sequence (P10276 1-462): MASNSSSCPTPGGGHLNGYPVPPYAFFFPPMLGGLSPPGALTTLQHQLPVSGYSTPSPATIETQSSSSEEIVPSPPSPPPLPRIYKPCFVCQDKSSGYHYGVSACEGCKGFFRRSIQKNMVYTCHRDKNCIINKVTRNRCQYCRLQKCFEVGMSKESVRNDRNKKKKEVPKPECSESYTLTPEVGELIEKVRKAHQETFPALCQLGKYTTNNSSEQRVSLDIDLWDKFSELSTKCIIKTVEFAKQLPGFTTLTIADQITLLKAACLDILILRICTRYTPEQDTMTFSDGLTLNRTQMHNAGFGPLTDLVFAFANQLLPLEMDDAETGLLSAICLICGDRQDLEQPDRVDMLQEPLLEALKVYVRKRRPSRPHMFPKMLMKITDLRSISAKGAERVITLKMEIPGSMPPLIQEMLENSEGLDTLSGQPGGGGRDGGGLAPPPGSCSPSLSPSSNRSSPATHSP
Description: ligand binding assay, RARα. The settings on record: for Ki: read-out: RAR Bind. Ki α; for Kd: Table 9 (Formula F), read-out: RAR α Kd.
Source text: as §1, §4

On to `CCOc1cc2c(cc1\C(C)=C(F)/C=C/C(C)=C/C(=O)O)C(C(C)C)=CCC2(C)C` [Compound A-79, (2E,4E,6E)-6-Fluoro-3-(4,4-dimethylethoxy-1-isopropyl-3,4-dihydronaphthalen-7-yl)-3-methyl-2.4,6-octa-trienoic acid], for which, on RXRγ, the EC50 (in general, the concentration needed to bring the measured effect to its halfway point) is 2 nM and the “RXR Trans. efficacy (number in parentheses) γ” value (shortened to “RXR Trans. efficacy”) came to 59%. The Ki (commonly the equilibrium dissociation constant of an inhibitor or competing ligand from its target) on RXRα [1] is 2 nM. On RXRα [2], the EC50 worked out at 1 nM and the Emax worked out at 62%. The Ki on RARα was found to be 615 nM.
Take `CCOc1c(\C(CC)=C(F)/C=C/C(C)=C/C(=O)O)cc2c(c1Br)C(C)(C)CC=C2C(C)C` [Compound A-170, (2E,4E,6E)-7-(4-Bromo-3-ethoxy-8-isopropyl-5,5-dimethyl-5,6-dihydro-naphthalen-2-yl)-6-fluoro-3-methyl-nona-2,4,6-trienoic acid]: the results for the EC50 at RXRγ and at RXRα [2] were 0.4 nM and 0.2 nM, respectively. Also, the “RXR Trans. efficacy” value at RXRγ amounted to 53%. The Kd (usually the equilibrium constant for the complex coming apart) is 2 nM at RXRα [1] and 12 nM on RARα. Further, at RXRα [2], the Emax came out at 60%.
Take `COc1cc2c(cc1\C(C)=C(F)/C=C/C(C)=C/C(=O)O)C(C(C)C)=CC(C)(C)O2` [Compound 121, (2E,4E,6E)-6-Fluoro-7-(4-isopropyl-7-methoxy-2,2-dimethyl-2H-chromen-6-yl)-3-methyl-octa-2,4,6-trienoic acid]: at RXRγ, the EC50 was found to be 10 nM and the “RXR Trans. efficacy” value came out at 79%. Moreover, the Ki at RXRα [1] came to 7 nM. Further, at RXRα [2], the EC50 turned out to be 5 nM and the Emax was found to be 59%. Moreover, at RARα, the Ki amounted to 692 nM.
For `CCOc1cc2c(cc1\C(=C/C=C/C(C)=C/C(=O)O)CC)C(C)=CCC2(C)C` [Compound A-16, 7-(3-Ethoxy-5,5,8-trimethyl-5,6-dihydronaphthalen-2-yl)-3-methyl-nona-2E,4E,6Z-trienoic acid], the EC50 on RXRγ came out at 32 nM; on RXRα [2] it was 12 nM. In addition, the “RXR Trans. efficacy” value at RXRγ is listed as 26%. The Ki came out at 8.7 nM on RXRα [1] and 578 nM on RARα. Also, the Emax on RXRα [2] amounted to 39%.
`CCOc1cc2c(cc1\C(C)=C(F)/C=C/C(C)=C/C(=O)O)C(CC)=CC(C)(C)O2` [Compound 123, 7-(7-Ethoxy-4-ethyl-2,2-dimethyl-2H-chromen-6-yl)-6-fluoro-3-methyl-octa-2E,4E,6E-trienoic acid]: the values for the EC50 at RXRγ and at RXRα [2] were over 1000 nM and over 10000 nM, respectively. The Ki at RXRα [1] was 833 nM; on RARα, over 10000 nM.
Consider `CCOc1c(\C(C)=C(F)/C=C/C(C)=C/C(=O)O)cc2c(c1Br)C(C)(C)CC=C2C(C)(C)C` [Compound A-174, (2E,4E,6E)-7-(4-Bromo-8-tert-butyl-3-ethoxy-5,5-dimethyl-5,6-dihydro-naphthalen-2-yl)-6-fluoro-3-methyl-octa-2,4,6-trienoic acid], for which, on RXRγ, the EC50 turned out to be 2 nM and the “RXR Trans. efficacy” value is on record as 12%. In addition, at RXRα [1], the Kd was 2 nM. Moreover, at RXRα [2], the 50% effective concentration (EC50) is 1 nM and the Emax came to 24%. Moreover, the Kd at RARα worked out at 997 nM.
As to `CCOc1cc2c(cc1\C(C)=C/C=C/C(C)=C/C(=O)O)C(C(C)(C)C)=CCC2(C)C` [Compound A-17, 7-(8-tert-Butyl-3-ethyloxy-5,5-dimethyl-5,6-dihydronaphthalen-2-yl)-3-methyl-octa-2E,4E,6Z-trienoic acid], on RXRγ, the EC50 is 0.9 nM and the “RXR Trans. efficacy” value was determined as 73%. Moreover, at RXRα [1], the Ki was determined as 2.4 nM. Further, on RXRα [2], the EC50 came out at 0.6 nM and the Emax was 85%. In addition, at RARα, the Ki was 861 nM.
Regarding `COc1cc2c(cc1\C(C)=C(F)/C=C/C(C)=C/C(=O)O)C(C(C)(C)C)=CC(C)(C)O2` [Compound 122, 7-(4-tert-Butyl-7-methoxy-2,2-dimethyl-2H-chromen-6-yl)-6-fluoro-3-methyl-octa-2E,4E,6E-trienoic acid], on RXRγ, the EC50 was determined as 9 nM and the “RXR Trans. efficacy” value is on record as 52%. Besides, the Ki on RXRα [1] was 11 nM. At RXRα [2], the EC50 was 5 nM and the Emax stood at 36%. Besides, the Ki at RARα came to 800 nM.
As to `COc1c(\C(C)=C/C=C/C(C)=C/C(=O)O)cc2c(c1Cl)OC(C)(C)C=C2C(C)C` [Compound 49, 7-(8-Chloro-4-isopropyl-7-methoxy-2,2-dimethyl-2H-chromen-6-y)-3-methyl-octa-2E,4E,6Z-trienoic acid], at RXRγ, the EC50 worked out at 0.3 nM and the “RXR Trans. efficacy” value turned out to be 97%. The Ki at RXRα [1] is 2 nM. On RXRα [2], the EC50 worked out at 0.1 nM and the Emax stood at 93%. The Ki at RARα stood at 1000 nM.
Turning to `CC/C(=C/C=C/C(C)=C/C(=O)O)c1cc2c(cc1OC)OC(C)(C)C=C2C(C)C` [Compound 44, 7-(4-Isopropyl-7-methoxy-22-dimethyl-2H-chromen-6-yl)-3-methyl-nona-2E,4E,6Z-trienoic acid], the EC50 on RXRγ stood at 0.4 nM; on RXRα [2], 0.3 nM. Moreover, the “RXR Trans. efficacy” value at RXRγ was 97%. Besides, the Ki amounted to 4 nM at RXRα [1] and 215 nM at RARα. For the same molecule, the Emax on RXRα [2] was 89%.
On to `COc1c(\C(C)=C(F)/C=C/C(C)=C/C(=O)O)cc2c(c1Cl)OC(C)(C)C=C2C(C)C` [Compound 170, 7-(8-Chloro-4-isopropyl-7-methoxy-2,2-dimethyl-2H-chromen-6-yl)-6-fluoro-3-methyl-octa-2E,4E,6E-trienoic acid], for which, on RXRγ, the EC50 worked out at 0.2 nM and the “RXR Trans. efficacy” value was 109%. Besides, the Ki at RXRα [1] is 2 nM. At RXRα [2], the 50% effective concentration (EC50) stood at 0.8 nM and the Emax was found to be 86%. For the same molecule, the inhibition constant Ki on RARα was found to be 3400 nM.
